pIC50: −log10 of the molar value.
Legend:
Leishmania donovani [1] = test: Antiprotozoal activity against Leishmania donovani promastigote at 10 uM relative to control; assay type: functional
Trypanosoma cruzi = test: Antiprotozoal activity against Trypanosoma cruzi amastigotes infected in mouse Peritoneal macrophage cells assessed as growth inhibition at 1.56 uM relative to control; assay type: functional
Trypanothione reductase = Trypanothione reductase (Trypanosoma brucei brucei, UniProt P39051); test: Inhibition of Trypanosoma brucei TryR
Trypanosoma brucei [2] = test: Trypanocidal activity against Trypanosoma brucei; assay type: functional, organism-based
[3] = tested on: Trypanosoma brucei brucei; test: Antiprotozoal activity against Trypanosoma brucei brucei Lab 110 EATRO strain; assay type: functional, organism-based
Leishmania donovani [4] = test: Antiprotozoal activity against Leishmania donovani promastigote measured after 72 hrs by LDH assay; assay type: functional, organism-based
Trypanothione synthetase = Trypanothione synthetase (Crithidia fasciculata, UniProt O60993); test: Inhibition of Crithidia fasciculata His tagged TryS in presence of ATP by LDH/PK assay
Leishmania infantum [5] = test: Antiprotozoal activity against Leishmania infantum; assay type: functional, organism-based
[6] = Inhibition of Leishmania infantum His tagged TryS in presence of ATP by LDH/PK assay
[7] = Inhibition of Trypanosoma brucei His tagged TryS in presence of ATP by LDH/PK assay
[8] = Half life in BALB/c mouse plasma infected with Trypanosoma brucei 427 strain at 25 mg/kg/day, sc measured after 3 days; assay type: ADME, organism-based; settings: time 3 day
Trypanosoma brucei [9] = test: Trypanocidal activity against Trypanosoma brucei trypomastigotes; assay type: functional, organism-based
[10] = Inhibition of Trypanosoma brucei MetRS in presence of ATP
[11] = Anticancer activity against human CRL-8155 cells assessed as cell growth inhibition; assay type: functional, cell-based; settings: CRL8155
[12] = Inhibition of Trypanosoma cruzi recombinant N-terminal His-tag TryS in presence of ATP
[13] = Inhibition of Leishmania infantum recombinant N-terminal His-tag TryS in presence of ATP
[14] = Inhibition of Trypanosoma brucei recombinant N-terminal His-tag TryS in presence of ATP
[15] = Inhibition of Trypanosoma brucei rhodesiense TryR
Trypanosoma brucei [16] = test: Antiprotozoal activity against Trypanosoma brucei infected in HepG2 cells; assay type: functional, organism-based
[17] = tested on: Trypanosoma brucei rhodesiense; test: Antiprotozoal activity against Trypanosoma brucei rhodesiense STIB900 strain; assay type: functional, organism-based
L6 = test: Anticancer activity against rat L6 cells assessed as cell growth inhibition; assay type: functional, cell-based
[18] = Inhibition of TryR (unknown origin); assay type: functional
Trypanosoma brucei [19] = test: Antiprotozoal activity against Trypanosoma brucei clone 427-221a; assay type: functional, organism-based
HL-60 = test: Anticancer activity against human HL-60 cells assessed as cell growth inhibition by trypan blue staining based assay; assay type: functional
Leishmania major = test: Antiprotozoal activity against Leishmania major amastigotes; assay type: functional, organism-based
Leishmania infantum [20] = test: Antiprotozoal activity against Leishmania infantum promastigotes measured after 5 days; assay type: functional, organism-based; settings: 120 h
Leishmania infantum [21] = test: Antiprotozoal activity against Leishmania infantum amastigotes measured after 5 days; assay type: functional, organism-based; settings: 120 h

Sequence of Trypanothione reductase (P39051 whole entry): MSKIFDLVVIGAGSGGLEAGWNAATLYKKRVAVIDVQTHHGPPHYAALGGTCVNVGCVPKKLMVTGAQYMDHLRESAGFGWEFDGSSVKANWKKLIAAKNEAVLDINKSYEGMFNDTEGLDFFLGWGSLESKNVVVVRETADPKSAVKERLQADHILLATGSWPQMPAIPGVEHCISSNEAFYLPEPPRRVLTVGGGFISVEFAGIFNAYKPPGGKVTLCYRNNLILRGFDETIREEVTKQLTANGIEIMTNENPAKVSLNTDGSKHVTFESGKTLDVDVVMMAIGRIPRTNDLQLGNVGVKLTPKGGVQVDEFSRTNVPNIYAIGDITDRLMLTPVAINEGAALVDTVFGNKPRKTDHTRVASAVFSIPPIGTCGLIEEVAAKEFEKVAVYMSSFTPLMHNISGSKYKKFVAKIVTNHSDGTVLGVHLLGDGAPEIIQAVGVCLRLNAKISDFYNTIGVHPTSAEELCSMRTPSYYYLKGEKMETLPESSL
Sequence of Trypanothione synthetase (O60993 whole entry): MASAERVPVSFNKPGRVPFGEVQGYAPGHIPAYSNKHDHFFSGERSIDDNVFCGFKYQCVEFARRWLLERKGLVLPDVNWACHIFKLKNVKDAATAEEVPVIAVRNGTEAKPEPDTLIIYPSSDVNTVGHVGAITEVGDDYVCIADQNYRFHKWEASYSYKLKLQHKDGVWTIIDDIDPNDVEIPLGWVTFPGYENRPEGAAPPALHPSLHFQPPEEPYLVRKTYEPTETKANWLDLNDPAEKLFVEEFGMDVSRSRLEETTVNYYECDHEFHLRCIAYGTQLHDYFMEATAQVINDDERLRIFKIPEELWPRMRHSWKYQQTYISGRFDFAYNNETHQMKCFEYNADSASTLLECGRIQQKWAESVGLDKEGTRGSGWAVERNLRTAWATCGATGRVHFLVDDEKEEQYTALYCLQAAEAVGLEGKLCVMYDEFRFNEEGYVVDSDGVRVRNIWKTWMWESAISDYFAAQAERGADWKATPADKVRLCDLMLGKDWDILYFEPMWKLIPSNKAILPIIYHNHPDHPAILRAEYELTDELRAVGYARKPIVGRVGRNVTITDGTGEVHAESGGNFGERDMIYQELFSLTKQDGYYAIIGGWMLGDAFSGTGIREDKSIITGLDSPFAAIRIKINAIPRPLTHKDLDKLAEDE

`COc1ccc2nc3cc(Cl)ccc3c(NCCCCCCCCNc3c4ccc(Cl)cc4nc4ccc(OC)cc34)c2c1` showed an inhibition at 10 µM (Leishmania donovani [1]) of 99% and an inhibition at 1.56 µM (Trypanosoma cruzi) of 70%.

Work on `Clc1ccc2c(c1)N(CCCN1CCN(CCCc3ccccc3)CC1)c1ccccc1S2` yielded a pIC50 (Trypanothione reductase) of 6.12 and a pIC50 (Trypanosoma brucei [2]) of 6.11.

For `N=C(NC1CCCCCC1)c1ccc(N2CCN(c3ccc(C(=N)NC4CCCCCC4)cc3)CC2)cc1`, the pIC50 [3] was 7.74 and the pIC50 (Leishmania donovani [4]) was 5.32.

For `CNCCNC(=O)CN1C(=O)Cc2c([nH]c3ccc(Br)cc23)-c2ccc(Cl)cc21`, the pIC50 (Trypanothione synthetase) was 7.52, the pIC50 (Leishmania infantum [5]) was 4.90 and the pIC50 [6] was 6.82. For the same molecule, the pIC50 [7] was 4.23.

`Oc1cc(NCCCNCc2cc(Cl)cc(Cl)c2)nc2ccccc12` gave a half-life [8] of 1 h, a pIC50 (Trypanosoma brucei [9]) of 8.40 and a pIC50 [10] of 8.10. For the same molecule, the pIC50 [11] was less than 4.70.

`CC(C)c1ccc(CNCCCCCCCCCCNCc2ccc(C(C)C)cc2)cc1` showed a pIC50 [12] of 4.52, a pIC50 [13] of 4.52 and a pIC50 [14] of 4.52.

With `C[N+](C)(CCCNc1cc(Cl)ccc1Sc1ccccc1)Cc1ccc(Cl)c(Cl)c1` the pIC50 [15] was 5.30.

In the case of `COc1ccc(CNCCNCc2ccc(OC)cc2)cc1`, the pIC50 (Trypanosoma brucei [16]) was no less than 5.00.

`C[N+](C)(CCCNc1cc(Cl)ccc1Sc1ccccc1)Cc1ccc([N+](=O)[O-])o1` showed a pIC50 [17] of 6.22, a pIC50 (L6) of less than 3.77 and a pIC50 [18] of 5.05.

`COc1ccc2nc3cc(Cl)ccc3c(NCCCN(C)CCCNc3c4ccc(Cl)cc4nc4ccc(OC)cc34)c2c1` gave a pIC50 (Trypanosoma brucei [19]) of 9.00, a pIC50 (HL-60) of 6.00 and a pIC50 (Leishmania major) of 5.22.

`O=C1c2cccc3cccc(c23)C(=O)N1CCCNCCCCNCCCN1C(=O)c2cccc3cccc(c23)C1=O` gave a pIC50 (Leishmania infantum [20]) of 6.00 and a pIC50 (Leishmania infantum [21]) of 6.00.
